Measurements taken from PubChem BioAssay (NCI).
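Briefly, cells in 96-well plates were exposed to five compound concentrations for 48 h, and endpoints were estimated by linear interpolation. TGI: total growth inhibition.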

Legend:
Experiment in all cases: growth of human tumour cells (NCI), 48 h
PC-3 prostate = system: PC-3 prostate
NCI-H460 lung = system: NCI-H460 lung
HCT-116 colon = system: HCT-116 colon
MDA-N = system: MDA-N
MCF7 breast = system: MCF7 breast
M14 melanoma = system: M14 melanoma
MDA-MB-231 breast = system: MDA-MB-231 breast
OVCAR-4 ovarian = system: OVCAR-4 ovarian
A498 renal = system: A498 renal
SW-620 colon = system: SW-620 colon
UACC-257 melanoma = system: UACC-257 melanoma
RXF 393 renal = system: RXF 393 renal
UO-31 renal = system: UO-31 renal
CAKI-1 renal = system: CAKI-1 renal
SNB-19 CNS = system: SNB-19 CNS
786-0 renal = system: 786-0 renal
KM12 colon = system: KM12 colon
HOP-62 NSCLC = system: HOP-62 NSCLC
A549 NSCLC = system: A549 NSCLC
HL-60(TB) leukemia = system: HL-60(TB) leukemia
ACHN renal = system: ACHN renal
SR leukemia = system: SR leukemia
EKVX NSCLC = system: EKVX NSCLC
COLO 205 colon = system: COLO 205 colon
HCC-2998 colon = system: HCC-2998 colon
SK-MEL-2 melanoma = system: SK-MEL-2 melanoma
HT29 colon = system: HT29 colon
IGROV1 ovarian = system: IGROV1 ovarian
OVCAR-5 ovarian = system: OVCAR-5 ovarian
SF-295 CNS = system: SF-295 CNS
NCI-H226 lung = system: NCI-H226 lung
OVCAR-3 ovarian = system: OVCAR-3 ovarian
SK-OV-3 ovarian = system: SK-OV-3 ovarian
UACC-62 melanoma = system: UACC-62 melanoma
SK-MEL-5 melanoma = system: SK-MEL-5 melanoma
DU-145 prostate = system: DU-145 prostate
NCI-H522 lung = system: NCI-H522 lung
NCI/ADR-RES ovarian = system: NCI/ADR-RES ovarian
NCI-H23 lung = system: NCI-H23 lung
MOLT-4 leukemia = system: MOLT-4 leukemia
SF-539 CNS = system: SF-539 CNS
HOP-92 NSCLC = system: HOP-92 NSCLC
HCT-15 colon = system: HCT-15 colon
CCRF-CEM leukemia = system: CCRF-CEM leukemia
MALME-3M melanoma = system: MALME-3M melanoma
U251 CNS = system: U251 CNS
TK-10 renal = system: TK-10 renal
OVCAR-8 ovarian = system: OVCAR-8 ovarian
HS 578T breast = system: HS 578T breast
SF-268 CNS = system: SF-268 CNS
MDA-MB-435 = system: MDA-MB-435
RPMI-8226 leukemia = system: RPMI-8226 leukemia
BT-549 breast = system: BT-549 breast
T-47D breast = system: T-47D breast
SK-MEL-28 melanoma = system: SK-MEL-28 melanoma
SNB-75 CNS = system: SNB-75 CNS
SN12C renal = system: SN12C renal
LOX IMVI melanoma = system: LOX IMVI melanoma
K-562 leukemia = system: K-562 leukemia

CC(C)(CN1CCCCC1)C(=O)CC(SCCS(=O)(=O)O)c1ccc(Cl)c(Cl)c1 (stereo not drawn)
TGI (PC-3 prostate): 17 µM | TGI (NCI-H460 lung): 11.9 µM | TGI (HCT-116 colon): 10.6 µM | TGI (MDA-N): 8.4 µM | TGI (MCF7 breast): 15.3 µM | TGI (M14 melanoma): 3.8 µM | TGI (MDA-MB-231 breast): 4.82 µM | TGI (OVCAR-4 ovarian): 9.38 µM | TGI (A498 renal): 12.9 µM | TGI (SW-620 colon): 4.61 µM | TGI (UACC-257 melanoma): 20.8 µM | TGI (RXF 393 renal): 11.2 µM | TGI (UO-31 renal): 16.4 µM | TGI (CAKI-1 renal): 12.9 µM | TGI (SNB-19 CNS): 23.1 µM | TGI (786-0 renal): 3.4 µM | TGI (KM12 colon): 23 µM | TGI (HOP-62 NSCLC): 18.7 µM | TGI (A549 NSCLC): 21 µM | TGI (HL-60(TB) leukemia): 5.63 µM | TGI (ACHN renal): 9.03 µM | TGI (SR leukemia): 6.38 µM | TGI (EKVX NSCLC): 18 µM | TGI (COLO 205 colon): 7.25 µM | TGI (HCC-2998 colon): 26.2 µM | TGI (SK-MEL-2 melanoma): 57.3 µM | TGI (HT29 colon): 10.9 µM | TGI (IGROV1 ovarian): 13.5 µM | TGI (OVCAR-5 ovarian): 14.6 µM | TGI (SF-295 CNS): 15.8 µM | TGI (NCI-H226 lung): 39.1 µM | TGI (OVCAR-3 ovarian): 6.97 µM | TGI (SK-OV-3 ovarian): 45 µM | TGI (UACC-62 melanoma): 10.1 µM | TGI (SK-MEL-5 melanoma): 21.1 µM | TGI (DU-145 prostate): 23.4 µM | TGI (NCI-H522 lung): 5.59 µM | TGI (NCI/ADR-RES ovarian): 22.9 µM | TGI (NCI-H23 lung): 15.8 µM | TGI (MOLT-4 leukemia): 8.06 µM | TGI (SF-539 CNS): 6.23 µM | TGI (HOP-92 NSCLC): 6.18 µM | TGI (HCT-15 colon): 5.35 µM | TGI (CCRF-CEM leukemia): 4.69 µM | TGI (MALME-3M melanoma): 22.1 µM | TGI (U251 CNS): 19.3 µM | TGI (TK-10 renal): 18.9 µM | TGI (OVCAR-8 ovarian): 8.45 µM | TGI (HS 578T breast): 7 µM | TGI (SF-268 CNS): 15.1 µM | TGI (MDA-MB-435): 4.57 µM | TGI (RPMI-8226 leukemia): 7.03 µM | TGI (BT-549 breast): 13 µM

O/N=C1/CCCCC1NO (stereo not drawn)
TGI (PC-3 prostate): > 100 µM | TGI (T-47D breast): > 100 µM | TGI (NCI-H460 lung): > 100 µM | TGI (HCT-116 colon): > 100 µM | TGI (MDA-N): > 100 µM | TGI (MCF7 breast): > 100 µM | TGI (M14 melanoma): > 100 µM | TGI (MDA-MB-231 breast): > 100 µM | TGI (OVCAR-4 ovarian): > 100 µM | TGI (SW-620 colon): > 100 µM | TGI (SK-MEL-28 melanoma): > 100 µM | TGI (UACC-257 melanoma): > 100 µM | TGI (RXF 393 renal): > 100 µM | TGI (UO-31 renal): > 100 µM | TGI (CAKI-1 renal): > 100 µM | TGI (SNB-19 CNS): > 100 µM | TGI (786-0 renal): > 100 µM | TGI (KM12 colon): > 100 µM | TGI (HOP-62 NSCLC): > 100 µM | TGI (A549 NSCLC): > 100 µM | TGI (HL-60(TB) leukemia): > 100 µM | TGI (ACHN renal): > 100 µM | TGI (SR leukemia): > 100 µM | TGI (EKVX NSCLC): > 100 µM | TGI (COLO 205 colon): > 100 µM | TGI (SNB-75 CNS): > 100 µM | TGI (HCC-2998 colon): > 100 µM | TGI (SK-MEL-2 melanoma): > 100 µM | TGI (HT29 colon): > 100 µM | TGI (SN12C renal): > 100 µM | TGI (IGROV1 ovarian): > 100 µM | TGI (OVCAR-5 ovarian): > 100 µM | TGI (SF-295 CNS): > 100 µM | TGI (NCI-H226 lung): > 100 µM | TGI (OVCAR-3 ovarian): > 100 µM | TGI (SK-OV-3 ovarian): > 100 µM | TGI (UACC-62 melanoma): > 100 µM | TGI (LOX IMVI melanoma): > 100 µM | TGI (SK-MEL-5 melanoma): > 100 µM | TGI (DU-145 prostate): > 100 µM | TGI (NCI/ADR-RES ovarian): > 100 µM | TGI (NCI-H23 lung): > 100 µM | TGI (MOLT-4 leukemia): > 100 µM | TGI (SF-539 CNS): > 100 µM | TGI (HCT-15 colon): > 100 µM | TGI (CCRF-CEM leukemia): > 100 µM | TGI (MALME-3M melanoma): > 100 µM | TGI (U251 CNS): > 100 µM | TGI (TK-10 renal): > 100 µM | TGI (OVCAR-8 ovarian): > 100 µM | TGI (HS 578T breast): > 100 µM | TGI (SF-268 CNS): > 100 µM | TGI (MDA-MB-435): > 100 µM | TGI (K-562 leukemia): > 100 µM | TGI (RPMI-8226 leukemia): > 100 µM
